The values that follow come from patent publication US9618511B2, “Methods and compositions for treating alzheimer's disease” (Eleanore Bennett Charitable Trust #2, priority 2008, dated 2017).

Entries after “also recorded” stand apart in the source; their conditions may differ.

Assay [1] relates to PDK-dependent activation of Akt1. Kind of assay: In vitro PDK-dependent Akt1 phosphorylation and activity assay (immunoprecipitated PDK1 and Akt1, GSK-3 fusion protein substrate). The settings on record: for effect on PDK-stimulated Akt activity / Akt phosphorylation: 10 μM; for relative effect of amyloid preparations (monomer, ADDL, fibril) on PDK-dependent Akt activation: comparison of preparations, SH-SY5Y-derived kinases. Type of assay: biochemical, human (SH-SY5Y, HEK293), mouse (C2C12). As for the experimental part: Akt1 was immunoprecipitated (IP) overnight from 100 μg of the human brain sample or from C2C12 myotubes infected with adenovirus encoding Aβ using a 1:100 dilution of goat anti-Akt1 antibody. The following morning, 40 μl of a 50% slurry of protein G-Agarose (PGA) (Roche Applied Science) was added for an additional 1.5 hours. The beads were washed twice with wash buffer [1× phosphate buffered saline (PBS), 0.5% NP-40, 0.1 mM Na3VO4] and twice with kinase buffer [25 mM Tris (pH 7.5), 2 mM DTT, 0.1 mM Na3VO4, 10 mM MgCl2]. ATP (200 μM) and GSK-3 fusion protein (1 μg/50 μl) were added in the presence of kinase buffer, and the final reaction (50 μl) was incubated 30 minutes at 30° C. The reaction was stopped by adding 40 μl of Laemmli buffer. 20 μl of sample was loaded onto a 10% polyacrylamide gel for fractionation and western detection development.
Immunoprecipitates (IPs) of PDK1 and Akt were prepared from 100 μg of either SH-SY5Y, C2C12 myotubes or from insulin-treated cultures. ATP (200 μM), GSK-3 fusion protein (1 μg/50 μl) and kinase buffer were added to the reaction. Various Aβ peptides were finally added at 0.01, 0.1, 1, 5, 10, 20 μM. Akt activity level was otherwise determined as above.

The target of assay [2] is T1, SGK (serum/glucocorticoid regulated kinase) activated by PDK (Mus musculus, UniProt Q9Z2A0).
T1 construct: Stimulated PDK was IP from insulin-treated C2C12 myotubes; endogenous in cells; host or cells: PDK from insulin-treated C2C12 myotubes
T1 sequence (Q9Z2A0 1-559): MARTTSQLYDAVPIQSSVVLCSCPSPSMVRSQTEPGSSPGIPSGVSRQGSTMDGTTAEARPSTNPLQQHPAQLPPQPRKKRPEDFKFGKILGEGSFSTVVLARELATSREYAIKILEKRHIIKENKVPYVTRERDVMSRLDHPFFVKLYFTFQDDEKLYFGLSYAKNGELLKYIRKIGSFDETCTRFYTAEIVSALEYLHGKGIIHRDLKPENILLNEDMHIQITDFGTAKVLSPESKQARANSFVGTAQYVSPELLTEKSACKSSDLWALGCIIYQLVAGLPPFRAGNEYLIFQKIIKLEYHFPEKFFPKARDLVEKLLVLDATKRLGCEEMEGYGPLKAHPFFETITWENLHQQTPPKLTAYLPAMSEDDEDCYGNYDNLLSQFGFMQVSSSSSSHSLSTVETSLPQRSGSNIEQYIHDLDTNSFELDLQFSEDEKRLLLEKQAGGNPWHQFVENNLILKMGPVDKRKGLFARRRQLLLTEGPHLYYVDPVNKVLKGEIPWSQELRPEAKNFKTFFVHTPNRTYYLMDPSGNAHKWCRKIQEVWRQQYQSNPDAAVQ
Kind of assay: PDK-stimulated SGK activity, in vitro kinase assay. It is filed as biochemical. The settings on record: 10 μM. An excerpt:
Another kinase, termed SGK (serum/glucocorticoid regulated kinase), is also activated by PDK. Similar to Akt, SGK has a PH domain and phosphorylates GSK-3 α/β (Kobayashi, T., Deak, M., Morrice, N., and Cohen, P., 1999, Characterization of the structure and regulation of two novel isoforms of serum- and glucocorticoid-induced protein kinase, Biochem J 344 Pt 1:189-197, and Tessier, M., and Woodgett, J. R., 2006, Serum and glucocorticoid-regulated protein kinases: variations on a theme, J Cell Biochem 98:1391-1407). If Aβ inhibits PH-mediated activations of Akt independent of PIP3, it is predicted to affect this mechanism too. Indeed, in FIG. 7D, ADDL-containing Aβ preparations inhibited PDK-stimulated SGK activity (lane 7 vs. 6 and 5). […] This enhanced activity was not however, interrupted by Aβ (10 μM, lane 4 vs. 3). Lastly, another kinase that converges to phosphorylate GSK, PKA (Grimes, C. A., and Jope, R. S., 2001, The multifaceted roles of glycogen synthase kinase 3beta in cellular signaling, Prog Neurobiol 65:391-426; Li, M., Wang, X., Meintzer, M. K., Laessig, T., Birnbaum, M. J., and Heidenreich, K. A., 2000, Cyclic AMP promotes neuronal survival by phosphorylation of glycogen synthase kinase 3beta, Mol Cell Biol 20:9356-9363), was tested. […] Thus, the mechanism of Aβ inhibition of Akt activation is specific to PDK-like kinases. […]

The subject of assay [3] is C2C12 myotubes. The experiment in a line: Extracellular peptide or insulin treatment of C2C12 myotubes, western blot of Akt signaling. It is filed as cell-based, mouse. The method, then: The prior cell-based and in vitro experiments are relevant to […] Aβ effects. To determine the specificity of Akt inhibition by […] Aβ, C2C12 myotubes were cultured, and treated with extracellular Aβ25-35, Aβ35-25, Aβ1-42 and Aβ42-1 for 24 hours. In the last 30 minutes before harvest, insulin was added (0.1 μg/ml). While p-Akt (Ser473) and p-GSK-3 α/β levels were increased by insulin treatment (FIG. 9C, lane 2 vs. 1), they were not affected by any of the Aβ treatments. […] There were also no significant changes in p-Akt (Ser473) levels (data not shown). […] PDK itself is subject to phosphorylation (e.g., at Ser 241) and several authors feel that it is constitutively phosphorylated and thus ‘primed’ (Casamayor, A., Morrice, N. A., and Alessi, D. R., 1999, Phosphorylation of Ser-241 is essential for the activity of 3-phosphoinositide-dependent protein kinase-1: identification of five sites of phosphorylation in vivo, Biochem J 342 (Pt 2):287-292). The experiments described herein indicate that p-PDK levels are constitutively high in C2C12 cells and not boosted further by insulin action (FIG. 9E, top). p-PDK levels were not modulated by extracellular (FIG. 9E lower panel) or intracellular Aβ expression (not shown).
In FIG. 9C C2C12 myotubes were bath exposed to AP25-35, reverse AP35-25, AP1-42 and reverse Aβ42-1 peptides for 24 hours before treatment with insulin (0.1 μg/ml, 15 min) Whole cell extracts were subjected to Western analysis for p-Akt (Ser473) (Akt activation) and total Akt levels (top) as well as for endogenous levels of pGSK-3a/p, indicative of Akt activity, and total GSK-3β (lower two blots). […] The increase was not affected by pre-treatment with extracellular AR.
In FIG. 9D C2C12 myotube cultures were exposed to increasing doses of A[i1-42 (0, 10 and 25 μM) for 2 hours before treatment with insulin (0, 20, 100 and 500 ng/ml) for 15 min Harvested cell extracts were used for western blot for p-Akt (Thr308).

Turning to `CCCCCCCCCCCCCCCC(=O)OC[C@H](COP(=O)(O)OC1[C@H](O)[C@H](OP(=O)(O)O)C(OP(=O)(O)O)[C@H](OP(=O)(O)O)[C@H]1O)OC(=O)CCCCCCCCCCCCCCC` (stereo partly shown) [PIP3, phosphatidylinositol-tris-3,4,5-phosphate, dipalmitoyl], the “PDK-dependent Akt1 phosphorylation and activity” value in assay [1] (50 nM added, PP2A-treated Akt) is reported as “extra increase”.
For “ADDL: Aβ-derived diffusible ligands, oligomer-enriched Aβ42 preparation (24 to 48 hr at 4° C.)”, the “effect on PDK-stimulated Akt activity (GSK-3 substrate phosphorylation)” value in assay [1] (5 μM (or doses up to 5 μM)) is on record as “greatest interference”. In addition, the “effect on PDK-stimulated Akt activity / Akt phosphorylation” value in assay [1] is “nearly eliminates”; in assay [1] (listed as ADDL preparations) it was “near total inhibition”. Moreover, the figures for the “relative effect of amyloid preparations (monomer, ADDL, fibril) on PDK-dependent Akt activation” value in assay [1], in assay [1] (listed as ADDL-containing Aβ preparations) and in assay [1] (listed as ADDLs) were “more potent inhibitors”, “additively more injurious” and “more toxic; also recorded: significantly prevented; also recorded: significantly greater inhibition”, respectively. In addition, in assay [2], the “PDK-stimulated SGK activity” value was “inhibited SGK activation”.
For “Aβ25-35: fragment consisting of residues 25-35 of Aβ (GSNKGAIIGLM; Amyloid-beta protein 42; UniProt P05067 696-706, looked up, fragment)”, in assay [3] (extracellular peptide 24 hours, then insulin 0.1 μg/ml), the “p-Akt (Ser473) and p-GSK-3 α/β levels after insulin” value is recorded as “not affected”.
As to “Fibrillar Aβ: fibrillar Aβ42 made in 10 mM HCl, 37° C., 24 hr”, the “relative effect of amyloid preparations (monomer, ADDL, fibril) on PDK-dependent Akt activation” value is on record as “little toxicity; also recorded: least active” in assay [1] (listed as fibril-containing preparations) and “little effect” in assay [1] (listed as fibrillated preparations of Aβ).
Consider “Insulin: insulin used to stimulate the Akt pathway”, for which, in assay [3] (0.1 μg/ml, 15 min), the “levels of p-Akt (Ser473) and Akt activity (p-GSK-3 α/β)” value is “significantly increased”.
Turning to “PTEN: Recombinant Phosphatase and Tensin Homolog, lipid phosphatase (R & D Systems)”, the “PDK stimulation of Akt activity after preincubation of the kinase beads” value in assay [1] (preincubation 10.6 μg/ml, 15 min at 37° C., then washing) was “eliminated any stimulation of Akt activity”.
